≈ marks a conversion by molar mass, not a printed value.
Experiments:
S. aureus ATCC6538P = experiment: MIC assay; assay type: cell-based, Staphylococcus aureus; details: Staphylococcus aureus, ATCC6538P; two-fold serial dilutions in liquid media; n = 2–3
E. coli ATCC8739 = experiment: MIC assay; assay type: cell-based, Escherichia coli; details: Escherichia coli, ATCC8739; two-fold serial dilutions in liquid media; n = 2–3
[1] = tested on: Listeria monocytogenes (DSM20600); experiment: MIC assay; assay type: cell-based; details: two-fold serial dilutions in liquid media, n = 2–3
MRSA (ATCCBAA-1717) = experiment: MIC assay; assay type: cell-based, methicillin-resistant S. aureus; details: Staphylococcus aureus, read-out: MIC MRSA (ATCCBAA-1717)
[2] = tested on: Klebsiella pneumonia (DSM26371); experiment: MIC assay; assay type: cell-based; details: two-fold serial dilutions in liquid media, n = 2–3
[3] = tested on: Mycobacterium abscessus R(CIP 104536^T); experiment: MIC assay (REMA); assay type: cell-based; details: REMA microdilution, n = 2–3
[4] = tested on: Mycobacterium tuberculosis H37Rv (mc^26230); experiment: MIC assay (REMA); assay type: cell-based; details: REMA microdilution, n = 2–3
[5] = tested on: Fusarium oxysporum (DSM62316); experiment: MIC assay; assay type: cell-based; details: two-fold serial dilutions in liquid media, n = 2–3
[6] = tested on: Candida glabrata (DSM11226); experiment: MIC assay; assay type: cell-based; details: Nakaseomyces glabratus, two-fold serial dilutions in liquid media, n = 2–3
[7] = tested on: normal lung epithelial cells BEAS-2B; details: human
[8] = Cytotoxic assay (resazurin); details: human, HaCaT normal epidermal keratinocytes
[9] = Cytotoxic assay (resazurin); details: human, HepG2 liver cells

In the case of `CC(=O)Nc1ccc2c(c1)C(=O)/C(=C/c1cccc(OCc3ccccc3)c1)O2` [Compound 10, (Z)-N-(2-(3-(benzyloxy)benzylidene)-3-oxo-2,3-dihydrobenzofuran-5-yl)acetamide], the MIC (S. aureus ATCC6538P) is reported as 12.5 µM (≈ 4.82 µg/mL), the MIC (E. coli ATCC8739) is reported as 12.5 µM (≈ 4.82 µg/mL) and the MIC [1] is reported as 3.12 µM (≈ 1.2 µg/mL). The MIC (MRSA (ATCCBAA-1717)) was 12.5 µM (≈ 4.82 µg/mL), the MIC ([2]; Klebsiella pneumoniae, DSM26371) was > 100 µM and the MIC [2] was >100 µM. The MIC ([3]; Mycobacteroides abscessus, CIP104536, R morphotype) was > 100 µM, the “MIC Mycobacterium abscessus R(CIP 104536^T)” value ([3]; R morphotype) was “inactive” and the MIC ([4]; Mycobacterium tuberculosis, H37RV) was > 100 µM. The “MIC Mycobacterium tuberculosis H37Rv (mc^26230)” value [4] was “inactive”, the MIC [5] was 25 µM (≈ 9.64 µg/mL) and the MIC [6] was 50 µM (≈ 19.3 µg/mL). For the same molecule, the melting point was 204.5 °C, the “TI with MIC of 0.78 µM, BEAS-2B” value [7] was 216.6 and the CC50 at 48 h [8] was 268 µM. It also gave a CC50 at 48 h [9] of 472 µM.
